Source: publication PMC13608006 (Journal of medicinal chemistry, 2018)

Legend:
EV-A71 = test: antiviral CPE assay, anti-EV-A71 in LLC cells; format: cell-based, enterovirus 71 (EV-A71); settings: SI50 = CC50/EC50
CV-B3 (CVB3-H3) = format: cell-based, coxsackievirus B3; settings: SI50 = CC50/EC50
PV-1 = format: cell-based, poliovirus-1; settings: SI50 = CC50/EC50
CVB3-H3-C179F = format: cell-based, coxsackievirus B3
in vitro = settings: human

Row | SMILES | SI50 (EV-A71 in LLC cells) (EV-A71) | SI50 (CV-B3 in HeLa cells) (CV-B3 (CVB3-H3)) | SI50 (PV-1 in HeLa cells) (PV-1) | inhibition of CVB3-H3-C179F (missense mutation in the 2C coding domain) (CVB3-H3-C179F) | CC50 (in vitro) [µM] | CC50 (in vitro; CC50 (anti-PV-1 in HeLa cells column)) [µM]
1 | CC(C)n1ncc2c(C(=O)Nc3cc(S(N)(=O)=O)ccc3F)cc(-c3cccs3)nc21 [JX068, N-(2-Fluoro-5-sulfamoylphenyl)-1-isopropyl-6-(thiophen-2-yl)-1H-pyrazolo[3,4-b]pyridine-4-carboxamide] | SI50: 50.0 | SI50: 25.7 | SI50: 2.9 | – | – | –
2 | CC(C)n1ncc2c(C(=O)Nc3cncnc3)cc(-c3cccs3)nc21 [JX066, 1-Isopropyl-N-(pyrimidin-5-yl)-6-(thiophen-2-yl)-1H-pyrazolo[3,4-b]pyridine-4-carboxamide] | SI50: 50.0 | SI50: 25.7 | SI50: 1.8 | – | – | –
3 | CC(C)n1ncc2c(C(=O)Nc3cc(C(N)=O)ccc3F)cc(-c3cccs3)nc21 [JX073, N-(5-Carbamoyl-2-fluorophenyl)-1-isopropyl-6-(thiophen-2-yl)-1H-pyrazolo[3,4-b]pyridine-4-carboxamide] | SI50: 50.0 | SI50: 23.5 | SI50: 3.8 | – | – | –
4 | CC(C)n1ncc2c(C(=O)Nc3ccccc3F)cc(-c3cccs3)nc21 [JX001, N-(2-Fluorophenyl)-1-isopropyl-6-(thiophen-2-yl)-1H-pyrazolo[3,4-b]pyridine-4-carboxamide] | SI50: 21.7 | SI50: 8.9 | SI50: 1.8 | resistant | – | –
5 | CC(C)n1ncc2c(C(=O)Nc3ccc(F)cc3)cc(-c3ccsc3)nc21 [JX030, N-(4-Fluorophenyl)-1-isopropyl-6-(thiophen-3-yl)-1H-pyrazolo[3,4-b]pyridine-4-carboxamide] | SI50: >142.9 | SI50: 19.2 | – | – | – | –
6 | CC(C)n1ncc2c(C(=O)Nc3ccccn3)cc(-c3ccsc3)nc21 [JX057, 1-Isopropyl-N-(pyridin-2-yl)-6-(thiophen-3-yl)-1H-pyrazolo-[3,4-b]pyridine-4-carboxamide] | SI50: 31.3 | SI50: 15.0 | – | – | – | –
7 | CC(C)n1ncc2c(C(=O)Nc3cccc(S(N)(=O)=O)c3)cc(-c3cccs3)nc21 [JX025, 1-Isopropyl-N-(3-sulfamoylphenyl)-6-(thiophen-2-yl)-1H-pyrazolo[3,4-b]pyridine-4-carboxamide] | SI50: 19.2 | – | SI50: 10.0 | – | > 200 | 50
8 | CC(C)n1ncc2c(C(=O)Nc3ccccn3)cc(C3CC3)nc21 [JX071, 6-Cyclopropyl-1-isopropyl-N-(pyridin-2-yl)-1H-pyrazolo[3,4-b]pyridine-4-carboxamide] | SI50: 5.3 | SI50: 5.3 | – | – | – | –
9 | CC(C)n1ccc2c(C(=O)Nc3cccnc3)cc(-c3cccs3)nc21 [JX062, 1-Isopropyl-N-(pyridin-3-yl)-6-(thiophen-2-yl)-1H-pyrrolo-[2,3-b]pyridine-4-carboxamide] | SI50: 31.3 | SI50: 13.8 | – | – | – | –
10 | CC(C)n1ncc2c(C(=O)Nc3ccc(S(C)(=O)=O)cc3)cc(-c3cccs3)nc21 [JX047, 1-Isopropyl-N-(4-(methylsulfonyl)phenyl)-6-(thiophen-2-yl)-1H-pyrazolo[3,4-b]pyridine-4-carboxamide] | SI50: 100.0 | SI50: 200.0 | – | – | – | –
11 | CC(C)n1ncc2c(C(=O)Nc3ccccn3)cc(-c3cccs3)nc21 [JX040, 1-Isopropyl-N-(pyridin-2-yl)-6-(thiophen-2-yl)-1H-pyrazolo-[3,4-b]pyridine-4-carboxamide] | SI50: >400.0 | SI50: >250.0 | – | – | – | –
12 | CC(C)n1ncc2c(C(=O)Nc3ccncc3)cc(-c3cccs3)nc21 [JX042, 1-Isopropyl-N-(pyridin-4-yl)-6-(thiophen-2-yl)-1H-pyrazolo-[3,4-b]pyridine-4-carboxamide] | SI50: 15.8 | SI50: 10.0 | – | – | – | –
13 | CC(C)n1ncc2c(C(=O)Nc3cccc(C(N)=O)c3)cc(-c3cccs3)nc21 [JX064, N-(3-Carbamoylphenyl)-1-isopropyl-6-(thiophen-2-yl)-1H-pyrazolo[3,4-b]pyridine-4-carboxamide] | SI50: 31.3 | SI50: 25.7 | SI50: 2.9 | – | – | –
14 | CC(C)n1ncc2c(C(=O)Nc3cccc(F)c3)cc(-c3cccs3)nc21 [JX021, N-(3-Fluorophenyl)-1-isopropyl-6-(thiophen-2-yl)-1H-pyrazolo[3,4-b]pyridine-4-carboxamide] | SI50: >83.3 | SI50: >250.0 | – | – | – | –
15 | CC(C)n1ncc2c(C(=O)Nc3ccccc3S(N)(=O)=O)cc(-c3cccs3)nc21 [JX033, 1-Isopropyl-N-(2-sulfamoylphenyl)-6-(thiophen-2-yl)-1H-pyrazolo[3,4-b]pyridine-4-carboxamide] | SI50: 10.0 | SI50: 3.8 | – | – | – | –
16 | CC(C)n1ncc2c(C(=O)Nc3ccc(F)cc3)cc(-c3ccco3)nc21 [JX026, N-(4-Fluorophenyl)-6-(furan-2-yl)-1-isopropyl-1H-pyrazolo-[3,4-b]pyridine-4-carboxamide] | SI50: >76.9 | SI50: >83.0 | – | – | – | –
17 | CC(C)n1ncc2c(C(=O)Nc3c(F)cc(F)cc3F)cc(-c3cccs3)nc21 [JX020, 1-Isopropyl-6-(thiophen-2-yl)-N-(2,4,6-trifluorophenyl)-1H-pyrazolo[3,4-b]pyridine-4-carboxamide] | SI50: >66.7 | SI50: >111.1 | – | – | – | –
18 | CC(C)n1ncc2c(C(=O)Nc3ccc(F)c(S(N)(=O)=O)c3)cc(-c3cccs3)nc21 [JX069, N-(4-Fluoro-3-sulfamoylphenyl)-1-isopropyl-6-(thiophen-2-yl)-1H-pyrazolo[3,4-b]pyridine-4-carboxamide] | SI50: 62.5 | SI50: >181.8 | – | – | – | –
19 | CC(C)n1ncc2c(C(=O)Nc3ccc(F)cc3)cc(C3CC3)nc21 [JX038, 6-Cyclopropyl-N-(4-fluorophenyl)-1-isopropyl-1H-pyrazolo-[3,4-b]pyridine-4-carboxamide] | SI50: 3.9 | SI50: 3.0 | – | – | – | –
20 | CC(C)n1ncc2c(C(=O)Nc3cccnc3)cc(-c3cccs3)nc21 [JX056, 1-Isopropyl-N-(pyridin-3-yl)-6-(thiophen-2-yl)-1H-pyrazolo-[3,4-b]pyridine-4-carboxamide] | SI50: >400.0 | SI50: 62.5 | SI50: 2.5 | – | – | –
